Common to all, as to experiment: relative viability (nuclei count vs DMSO), 5 days (fraction); higher = more cells survive
Compound in assay [1]: CCc1c2c(nc3ccc(OC(=O)N4CCC(N5CCCCC5)CC4)cc13)-c1cc3c(c(=O)n1C2)COC(=O)[C@]3(O)CC [Irinotecan] + C[C@@H](Oc1cc(-c2cnn(C3CCNCC3)c2)cnc1N)c1c(Cl)ccc(F)c1Cl [Crizotinib] (partner 1 µM)
Summed up: (§1)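 Lung cancer cell lines in 1536-well plates were dosed by pin tool the day after seeding, either with one drug alone or with a fixed anchor-drug dose plus five library-drug doses (not always all listed) in √10 steps. After 5 days, cells were fixed and their nuclei stained in one step (final 0.05% Triton X-100, 1% formaldehyde, 1 ug/ml Hoechst), then counted on 4× images. Relative viability is the nuclei count in treated wells divided by that in vehicle wells. Values are medians of duplicate plates.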

Compound in assay [2]: Cn1cc(-c2cnc3ccc4ccc(CS(=O)(=O)NCc5ccccn5)cc4c(=O)c3c2)cn1 [MK-8033] + CCNC(=O)c1noc(-c2cc(C(C)C)c(O)cc2O)c1-c1ccc(CN2CCOCC2)cc1 [Luminespib] (partner 0.01 µM)
In a few lines:
as §1

Compound in assay [3]: Cn1cc(-c2cnc3ccc4ccc(CS(=O)(=O)NCc5ccccn5)cc4c(=O)c3c2)cn1 [MK-8033] + Nc1nc2[nH]cc(CCc3ccc(C(=O)N[C@@H](CCC(=O)O)C(=O)O)cc3)c2c(=O)[nH]1 [Pemetrexed] (partner 0.2 µM)
In a few lines: as §1

Compound in assay [4]: Cn1cc(-c2cnc3ccc4ccc(CS(=O)(=O)NCc5ccccn5)cc4c(=O)c3c2)cn1 [MK-8033] + C[C@@H](Oc1cc(-c2cnn(C3CCNCC3)c2)cnc1N)c1c(Cl)ccc(F)c1Cl [Crizotinib] (partner 1 µM)
Summed up: as §1

Experimental findings from the supplement of paper PMC10307832 are described below.

Take PC-14: the relative viability in assay [1] (first compound 0.6325 µM) was 0.873; in assay [1] (first compound 2 µM), 0.695; in assay [1] (first compound 6.325 µM) it was 0.2; in assay [1] (first compound 20 µM), 0.194; in assay [2] (first compound 0.02 µM), 0.125; in assay [2] (first compound 0.06325 µM), 0.128. The relative viability in assay [2] (first compound 0.2 µM) was determined as 0.131; in assay [2] (first compound 0.6325 µM) it was 0.174; in assay [2] (first compound 2 µM), 0.224; in assay [3] (first compound 0.02 µM) it was 0.143; in assay [3] (first compound 0.06325 µM) it was 0.121; in assay [3] (first compound 0.2 µM), 0.142. The relative viability in assay [3] (first compound 0.6325 µM) turned out to be 0.149; in assay [3] (first compound 2 µM), 0.135; in assay [4] (first compound 0.02 µM), 0.932; in assay [4] (first compound 0.06325 µM) it was 0.81; in assay [4] (first compound 0.2 µM), 0.875; in assay [4] (first compound 0.6325 µM), 0.889. Further, the relative viability in assay [4] (first compound 2 µM) turned out to be 0.817.
With RERF-LC-KJ, the relative viability in assay [1] (first compound 0.6325 µM) was 0.785; in assay [1] (first compound 2 µM), 0.533; in assay [1] (first compound 6.325 µM) it was 0.322; in assay [1] (first compound 20 µM), 0.342; in assay [2] (first compound 0.02 µM) it was 1.14; in assay [2] (first compound 0.06325 µM), 1.14. The relative viability in assay [2] (first compound 0.2 µM) amounted to 1.25; in assay [2] (first compound 0.6325 µM) it was 1.24; in assay [2] (first compound 2 µM), 1.06; in assay [3] (first compound 0.02 µM), 0.459; in assay [3] (first compound 0.06325 µM), 0.467; in assay [3] (first compound 0.2 µM), 0.501. Besides, the relative viability in assay [3] (first compound 0.6325 µM) worked out at 0.462; in assay [3] (first compound 2 µM) it was 0.471; in assay [4] (first compound 0.02 µM) it was 0.867; in assay [4] (first compound 0.06325 µM), 0.849; in assay [4] (first compound 0.2 µM), 0.769; in assay [4] (first compound 0.6325 µM), 0.825. Also, in assay [4] (first compound 2 µM), the relative viability is 0.79.
SK-LU-1: the relative viability stood at 0.404 in assay [1] (first compound 0.6325 µM); 0.572 in assay [1] (first compound 2 µM); 0.474 in assay [1] (first compound 6.325 µM); 0.463 in assay [1] (first compound 20 µM); 0.188 in assay [2] (first compound 0.02 µM); 0.236 in assay [2] (first compound 0.06325 µM). For the same cell line, the relative viability was determined as 0.223 in assay [2] (first compound 0.2 µM); 0.188 in assay [2] (first compound 0.6325 µM); 0.192 in assay [2] (first compound 2 µM); 0.974 in assay [3] (first compound 0.02 µM); 0.944 in assay [3] (first compound 0.06325 µM); 0.929 in assay [3] (first compound 0.2 µM). The relative viability in assay [3] (first compound 0.6325 µM) amounted to 0.625; in assay [3] (first compound 2 µM), 0.956; in assay [4] (first compound 0.02 µM) it was 0.873; in assay [4] (first compound 0.06325 µM), 0.874; in assay [4] (first compound 0.2 µM), 0.8; in assay [4] (first compound 0.6325 µM), 0.835. Further, the relative viability in assay [4] (first compound 2 µM) came to 1.02.
Consider SK-MES-1, for which the relative viability in assay [1] (first compound 0.6325 µM) turned out to be 0.93; in assay [1] (first compound 2 µM), 0.767; in assay [1] (first compound 6.325 µM), 0.272; in assay [1] (first compound 20 µM), 0.298; in assay [2] (first compound 0.02 µM), 0.628; in assay [2] (first compound 0.06325 µM), 0.728. The relative viability in assay [2] (first compound 0.2 µM) came to 0.722; in assay [2] (first compound 0.6325 µM), 0.908; in assay [2] (first compound 2 µM) it was 0.823; in assay [3] (first compound 0.02 µM), 0.986; in assay [3] (first compound 0.06325 µM) it was 0.949; in assay [3] (first compound 0.2 µM), 0.904. Further, the relative viability in assay [3] (first compound 0.6325 µM) was 0.892; in assay [3] (first compound 2 µM), 0.853; in assay [4] (first compound 0.02 µM), 0.96; in assay [4] (first compound 0.06325 µM), 0.959; in assay [4] (first compound 0.2 µM), 0.919; in assay [4] (first compound 0.6325 µM), 1.01. Moreover, the relative viability in assay [4] (first compound 2 µM) was 0.992.
As to SW 1573, the relative viability in assay [1] (first compound 0.6325 µM) stood at 0.626; in assay [1] (first compound 2 µM), 0.43; in assay [1] (first compound 6.325 µM) it was 0.189; in assay [1] (first compound 20 µM), 0.197; in assay [2] (first compound 0.02 µM), 0.178; in assay [2] (first compound 0.06325 µM) it was 0.206. In addition, the relative viability came to 0.719 in assay [2] (first compound 0.2 µM); 0.366 in assay [2] (first compound 0.6325 µM); 0.185 in assay [2] (first compound 2 µM); 0.866 in assay [3] (first compound 0.02 µM); 0.807 in assay [3] (first compound 0.06325 µM); 0.766 in assay [3] (first compound 0.2 µM). Also, the relative viability in assay [3] (first compound 0.6325 µM) worked out at 0.834; in assay [3] (first compound 2 µM), 0.791; in assay [4] (first compound 0.02 µM) it was 0.798; in assay [4] (first compound 0.06325 µM) it was 0.743; in assay [4] (first compound 0.2 µM), 0.752; in assay [4] (first compound 0.6325 µM) it was 0.416. The relative viability in assay [4] (first compound 2 µM) was 0.695.
